Measured values as given in US20190010531A1, “CELL CULTURE PROCESS FOR MAKING A GLYCOPROTEIN” (Regeneron Pharmaceuticals, Inc., priority 2017, published 2019).

Tested on: CHO cells expressing a trap protein (receptor-Fc fusion protein, VEGF-trap)
Settings: 36.6 mg/L putrescine; VEGF-trap from CHO cells

NCCCCN [putrescine, 1,4-Diaminobutane]
Al N-Glycan relative amount (% area under the curve): 9.0 % area under the curve
